Results: patent US10670605B2, “Cysteine reactive probes and uses thereof” (The Scripps Research Institute, priority 2015, dated 2020)
Structures can show the parent of a compound that is named as a salt.

How the values were obtained:
[1] = molecular target: T1, PKCθ C14/C17 (Homo sapiens, UniProt Q04759); experiment: isoTOP-ABPP of compound-treated primary human T cells; format: cell-based; details: for R value (DMSO/DMF): PRKCQ C14 (Q04759)
T1 construct: endogenous in cells; host or cells: primary human T cells
Method: (§1) Cells were lysed by sonication and diluted to a concentration of 2 mg protein/mL. Protein concentrations were measured with the Bio-Rad DC™ protein assay reagents A and B (5000113, 5000114; Bio-Rad). 500 μL of proteome sample was treated with 100 μM of IA-alkyne probe using […] of a 10 mM DMSO stock. The labeling reactions were incubated at room temperature for 1 h upon which time the samples were conjugated to isotopically-labeled TEV-cleavable tags (TEV tags) by copper-catalyzed azide-alkyne cycloaddition (CuACC or ‘click chemistry’). 60 μL of heavy click chemistry reaction mixture was added to the DMSO-treated control sample and 60 μL of the light reaction mixture was added to the compound-treated sample. The click reaction mixture comprised TEV tags (10 μL of a 5 mM stock, light (fragment treated) or heavy (DMSO treated)), CuSO4 (10 μL of a 50 mM stock in water), and TBTA (30 μL of a 1.7 mM stock in 4:1 tBuOH:DMSO). To this was added TCEP (10 μL of a 50 mM stock). The reaction was performed for 1 h at room temperature.
(§2) The resulting pellets were resuspended in 500 μL of cold methanol by sonication and the heavy and light samples combined pairwise. Combined pellets were then washed with cold MeOH, after which the pellet was solubilized in PBS containing 1.2% SDS by sonication. The samples were heated at 90° C. for 5 min and subjected to streptavidin enrichment of probe-labeled proteins, sequential on-bead trypsin and TEV digestion, and liquid chromatography-tandem mass spectrometry (LC-MS/MS) according to the published isoTOP-ABPP protocols.
(§3) The quantification of heavy/light ratios (isoTOP-ABPP ratios, R values) was performed by in-house CIMAGE software using default parameters (3 MS1's per peak and signal to noise threshold of 2.5). Site-specific engagement of electrophilic compounds was assessed by blockade of IA-alkyne probe labeling. […] Overlapping peptides with the same labeled cysteine (for example, same local sequence around the labeled cysteines but different charge states, MudPIT segment numbers, or tryptic termini) were grouped together, and the median ratio from each group was recorded as the R value of the peptide for that run.

[2] = molecular target: T2, PRKDC C4045 (Homo sapiens, UniProt P78527); experiment: as above; format: cell-based; details: for R value (DMSO/DMF): PRKDC C4045 (P78527)
T2 construct: endogenous in cells; host or cells: primary human T cells
Method: as §1, §2, §3

[3] = molecular target: T3, PKCθ C322 (Homo sapiens, UniProt Q04759); experiment: as above; format: cell-based; details: 50 μM, 4 h
T3 construct: endogenous in cells; host or cells: primary human T cells
Method: as §1, §2, §3

[4] = molecular target: RRAGC C377 (Q9HB90) (Homo sapiens, UniProt Q9HB90); experiment: Competitive isoTOP-ABPP in situ; format: cell-based; details: fragment 2 at 200 μM, MDA-MB-231 cells
[5] = system: cysteines in MDA-MB-231 and Ramos cell proteomes; experiment: Competitive isoTOP-ABPP in cell lysates (in vitro): proteomic reactivity / liganded cysteine rate; format: binding, human; details: fragment 500 μM; % of quantified cysteines with R ≥4
Method: All cell lines were obtained from ATCC, were used with a low passage number and were grown at 37° C. with 5% CO2. MDA-MB-231 cells and HEK-293T cells were grown in DMEM supplemented with 10% fetal bovine serum, penicillin, streptomycin and glutamine. Jurkat, Ramos and MUM2C cells were grown in RPMI-1640 medium supplemented with 10% fetal bovine serum, penicillin and streptomycin. For in vitro labeling, cells were grown to 100% confluence for MDA-MB-231 cells or until cell density reached 1.5 million cells/mL for Ramos and Jurkat cells. […] Cell pellets were lysed by sonication and fractionated (100,000 g, 45 min) to yield soluble and membrane fractions, which were then adjusted to a final protein concentration of 1.5 mg/mL for proteomics experiments and 1 mg/mL for gel-based ABPP experiments. The soluble lysate was prepared fresh from frozen pellets directly before each experiment. Protein concentration was determined using the Bio-Rad DC™ protein assay kit.
For each sample, 100 μL of streptavidin-agarose beads slurry (Pierce) was washed in 10 mL PBS and then resuspended in 5 mL PBS. The SDS-solubilized proteins were added to the suspension of streptavidin-agarose beads and the bead mixture was rotated for 3 h at ambient temperature. After incubation, the beads were pelleted by centrifugation (1,400 g, 3 min) and were washed (2×10 mL PBS and 2×10 mL water).
The beads were transferred to eppendorf tubes with 1 mL PBS, centrifuged (1,400 g, 3 min), and resuspended in PBS containing 6 M urea (500 μL). To this was added 10 mM DTT (25 μL of a 200 mM stock in water) and the beads were incubated at 65° C. for 15 mins. 20 mM iodoacetamide (25 μL of a 400 mM stock in water) was then added and allowed to react at 37° C. for 30 mins with shaking. The bead mixture was diluted with 900 μL PBS, pelleted by centrifugation (1,400 g, 3 min), and resuspended in 200 μL PBS. To this was added 1 mM CaCl2 ([…]) and trypsin (2 μg, Promega, sequencing grade) and the digestion was allowed to proceed overnight at 37° C. with shaking. The beads were separated from the digest with Micro Bio-Spin columns (Bio-Rad) by centrifugation (1,000 g, 1 min), washed (2×1 mL PBS and 2×1 mL water) and then transferred to fresh eppendorfs with 1 mL water. The washed beads were washed once further in 140 μL TEV buffer (50 mM Tris, pH 8, 0.5 mM EDTA, 1 mM DTT) and then resuspended in 140 μL TEV buffer. 5 μL TEV protease (80 μM) was added and the reactions were rotated overnight at 29° C. The TEV digest was separated from the beads with Micro Bio-Spin columns by centrifugation (1,400 g, 3 min) and the beads were washed once with water (100 μL). The samples were then acidified to a final concentration of 5% (v/v) formic acid and stored at −80° C. prior to analysis.

[6] = molecular target: PGPEPI C149 (Q9NXJ5) (Homo sapiens, UniProt Q9NXJ5); experiment: Competitive isoTOP-ABPP in situ; format: cell-based; details: fragment 4 at 100 μM, MDA-MB-231 cells
[7] = molecular target: RAI14 C973 (Q9P0K7) (Homo sapiens, UniProt Q9P0K7); experiment: Competitive isoTOP-ABPP in situ; format: cell-based; details: fragment 4 at 100 μM, MDA-MB-231 cells

T1 sequence (Q04759 whole entry): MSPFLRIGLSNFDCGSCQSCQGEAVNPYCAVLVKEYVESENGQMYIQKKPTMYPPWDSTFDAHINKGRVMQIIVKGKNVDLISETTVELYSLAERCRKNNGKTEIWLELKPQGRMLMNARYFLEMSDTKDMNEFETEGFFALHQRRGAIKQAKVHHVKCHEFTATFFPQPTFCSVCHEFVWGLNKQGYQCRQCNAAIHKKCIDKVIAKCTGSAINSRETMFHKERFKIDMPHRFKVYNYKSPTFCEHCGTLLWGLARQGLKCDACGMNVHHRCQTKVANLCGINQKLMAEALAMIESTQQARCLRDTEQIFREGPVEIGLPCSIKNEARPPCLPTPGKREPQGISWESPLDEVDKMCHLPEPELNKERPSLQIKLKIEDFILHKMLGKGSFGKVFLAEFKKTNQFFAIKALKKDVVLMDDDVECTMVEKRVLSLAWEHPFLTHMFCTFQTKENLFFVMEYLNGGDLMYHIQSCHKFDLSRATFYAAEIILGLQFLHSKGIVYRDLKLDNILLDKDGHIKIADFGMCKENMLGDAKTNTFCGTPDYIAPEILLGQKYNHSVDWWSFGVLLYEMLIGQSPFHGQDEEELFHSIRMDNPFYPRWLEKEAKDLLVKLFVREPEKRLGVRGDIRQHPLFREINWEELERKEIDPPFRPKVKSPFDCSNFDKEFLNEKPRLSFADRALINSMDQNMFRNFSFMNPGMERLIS
T2 sequence (P78527 whole entry): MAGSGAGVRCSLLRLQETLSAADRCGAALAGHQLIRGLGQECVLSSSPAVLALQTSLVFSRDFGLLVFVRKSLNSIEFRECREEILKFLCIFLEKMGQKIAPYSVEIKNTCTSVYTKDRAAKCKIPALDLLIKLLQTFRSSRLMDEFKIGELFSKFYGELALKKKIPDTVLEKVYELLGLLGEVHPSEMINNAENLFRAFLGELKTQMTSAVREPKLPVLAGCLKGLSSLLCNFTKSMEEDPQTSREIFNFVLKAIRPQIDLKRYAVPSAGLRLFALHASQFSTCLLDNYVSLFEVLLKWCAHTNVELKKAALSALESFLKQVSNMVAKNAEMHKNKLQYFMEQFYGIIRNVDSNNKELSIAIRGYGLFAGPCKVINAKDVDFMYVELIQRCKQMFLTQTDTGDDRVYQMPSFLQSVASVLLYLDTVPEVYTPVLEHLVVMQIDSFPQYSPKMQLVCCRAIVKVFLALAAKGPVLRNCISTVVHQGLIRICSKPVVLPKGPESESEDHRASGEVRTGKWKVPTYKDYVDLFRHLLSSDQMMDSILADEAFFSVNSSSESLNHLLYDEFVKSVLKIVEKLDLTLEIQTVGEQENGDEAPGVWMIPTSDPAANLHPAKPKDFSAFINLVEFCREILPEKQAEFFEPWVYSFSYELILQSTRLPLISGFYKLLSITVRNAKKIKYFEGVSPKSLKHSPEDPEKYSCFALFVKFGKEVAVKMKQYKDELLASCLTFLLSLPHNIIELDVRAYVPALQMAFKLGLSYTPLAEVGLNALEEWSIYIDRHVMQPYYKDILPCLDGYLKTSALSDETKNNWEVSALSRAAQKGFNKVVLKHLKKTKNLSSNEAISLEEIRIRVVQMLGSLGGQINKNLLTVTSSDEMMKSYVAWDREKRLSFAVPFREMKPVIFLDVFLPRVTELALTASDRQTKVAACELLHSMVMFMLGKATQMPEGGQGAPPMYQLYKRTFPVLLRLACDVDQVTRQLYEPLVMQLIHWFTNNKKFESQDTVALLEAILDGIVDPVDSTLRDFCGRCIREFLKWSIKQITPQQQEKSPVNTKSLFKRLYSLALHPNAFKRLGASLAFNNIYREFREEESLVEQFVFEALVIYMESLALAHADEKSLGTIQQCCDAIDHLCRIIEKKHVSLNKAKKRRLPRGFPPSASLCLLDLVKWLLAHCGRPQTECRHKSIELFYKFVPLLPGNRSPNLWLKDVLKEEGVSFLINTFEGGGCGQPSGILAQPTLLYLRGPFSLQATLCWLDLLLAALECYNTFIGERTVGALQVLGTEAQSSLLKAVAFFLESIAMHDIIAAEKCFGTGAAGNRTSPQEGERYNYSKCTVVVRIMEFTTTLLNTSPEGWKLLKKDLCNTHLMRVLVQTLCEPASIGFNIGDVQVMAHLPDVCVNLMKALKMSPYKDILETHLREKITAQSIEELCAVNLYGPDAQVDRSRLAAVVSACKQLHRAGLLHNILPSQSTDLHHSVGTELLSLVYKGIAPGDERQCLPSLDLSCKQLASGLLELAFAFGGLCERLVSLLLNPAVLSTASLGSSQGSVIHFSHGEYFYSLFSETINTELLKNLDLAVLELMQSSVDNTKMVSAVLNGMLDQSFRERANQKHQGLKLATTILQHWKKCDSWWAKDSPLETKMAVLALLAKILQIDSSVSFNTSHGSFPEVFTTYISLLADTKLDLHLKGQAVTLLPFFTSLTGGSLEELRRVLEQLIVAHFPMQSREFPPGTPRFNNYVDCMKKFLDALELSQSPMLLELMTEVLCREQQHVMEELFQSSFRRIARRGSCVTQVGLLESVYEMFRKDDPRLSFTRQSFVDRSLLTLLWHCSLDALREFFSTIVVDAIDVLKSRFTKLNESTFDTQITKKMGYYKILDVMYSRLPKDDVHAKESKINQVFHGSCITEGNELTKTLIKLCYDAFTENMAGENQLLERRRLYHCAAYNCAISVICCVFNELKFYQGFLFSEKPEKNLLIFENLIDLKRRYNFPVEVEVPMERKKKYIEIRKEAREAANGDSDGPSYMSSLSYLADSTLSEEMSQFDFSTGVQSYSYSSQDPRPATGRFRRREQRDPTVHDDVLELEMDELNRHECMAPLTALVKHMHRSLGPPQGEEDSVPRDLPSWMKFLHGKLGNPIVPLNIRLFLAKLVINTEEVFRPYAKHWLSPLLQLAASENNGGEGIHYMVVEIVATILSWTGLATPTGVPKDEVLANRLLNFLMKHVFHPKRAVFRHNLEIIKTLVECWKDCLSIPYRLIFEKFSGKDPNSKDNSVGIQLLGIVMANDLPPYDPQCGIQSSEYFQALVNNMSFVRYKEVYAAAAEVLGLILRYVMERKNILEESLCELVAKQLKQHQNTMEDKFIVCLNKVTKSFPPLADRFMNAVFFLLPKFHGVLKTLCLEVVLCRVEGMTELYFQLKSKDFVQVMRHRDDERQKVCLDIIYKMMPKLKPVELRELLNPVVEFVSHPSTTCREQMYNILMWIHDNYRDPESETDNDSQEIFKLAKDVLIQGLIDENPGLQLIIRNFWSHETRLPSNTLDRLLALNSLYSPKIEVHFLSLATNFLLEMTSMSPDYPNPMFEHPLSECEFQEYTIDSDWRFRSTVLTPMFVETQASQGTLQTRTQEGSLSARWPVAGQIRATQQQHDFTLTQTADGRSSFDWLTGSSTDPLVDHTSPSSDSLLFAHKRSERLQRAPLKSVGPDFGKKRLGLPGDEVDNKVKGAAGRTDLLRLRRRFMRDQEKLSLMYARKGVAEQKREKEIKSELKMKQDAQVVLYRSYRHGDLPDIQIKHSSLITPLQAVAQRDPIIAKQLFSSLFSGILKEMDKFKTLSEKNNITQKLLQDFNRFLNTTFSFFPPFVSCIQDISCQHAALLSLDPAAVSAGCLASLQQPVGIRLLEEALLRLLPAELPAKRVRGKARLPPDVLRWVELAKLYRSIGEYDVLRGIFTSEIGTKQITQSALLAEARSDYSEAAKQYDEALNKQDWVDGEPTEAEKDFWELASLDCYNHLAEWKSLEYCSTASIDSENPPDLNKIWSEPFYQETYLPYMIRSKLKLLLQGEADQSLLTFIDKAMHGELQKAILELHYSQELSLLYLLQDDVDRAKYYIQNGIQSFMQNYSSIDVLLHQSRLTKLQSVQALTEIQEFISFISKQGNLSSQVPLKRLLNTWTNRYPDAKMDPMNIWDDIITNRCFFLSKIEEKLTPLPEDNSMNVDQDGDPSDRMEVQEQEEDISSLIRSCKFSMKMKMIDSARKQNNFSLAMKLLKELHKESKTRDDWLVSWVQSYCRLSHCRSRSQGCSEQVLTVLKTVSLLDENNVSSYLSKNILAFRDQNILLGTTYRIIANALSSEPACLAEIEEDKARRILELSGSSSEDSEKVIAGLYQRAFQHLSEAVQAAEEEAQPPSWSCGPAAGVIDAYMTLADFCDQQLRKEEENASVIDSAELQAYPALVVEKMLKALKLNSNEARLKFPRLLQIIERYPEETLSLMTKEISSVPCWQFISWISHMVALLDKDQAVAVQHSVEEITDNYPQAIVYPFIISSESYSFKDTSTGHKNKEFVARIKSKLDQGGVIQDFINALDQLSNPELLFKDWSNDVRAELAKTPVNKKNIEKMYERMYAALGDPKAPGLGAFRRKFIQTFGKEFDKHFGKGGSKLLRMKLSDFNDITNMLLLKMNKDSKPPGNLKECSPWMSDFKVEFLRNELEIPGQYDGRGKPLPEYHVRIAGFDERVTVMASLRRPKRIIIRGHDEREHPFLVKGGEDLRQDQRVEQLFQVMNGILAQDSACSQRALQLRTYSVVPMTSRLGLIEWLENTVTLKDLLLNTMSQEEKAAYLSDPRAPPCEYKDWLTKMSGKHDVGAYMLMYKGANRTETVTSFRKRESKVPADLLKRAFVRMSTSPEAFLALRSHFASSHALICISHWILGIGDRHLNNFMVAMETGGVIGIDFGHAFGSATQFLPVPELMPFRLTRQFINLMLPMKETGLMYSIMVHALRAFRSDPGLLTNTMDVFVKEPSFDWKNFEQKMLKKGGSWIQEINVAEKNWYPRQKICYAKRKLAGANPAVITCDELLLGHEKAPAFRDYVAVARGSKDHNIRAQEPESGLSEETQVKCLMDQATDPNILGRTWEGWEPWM
Chain of PGPEPI C149 (Q9NXJ5) (Q9NXJ5 whole entry, the tested form may be a part): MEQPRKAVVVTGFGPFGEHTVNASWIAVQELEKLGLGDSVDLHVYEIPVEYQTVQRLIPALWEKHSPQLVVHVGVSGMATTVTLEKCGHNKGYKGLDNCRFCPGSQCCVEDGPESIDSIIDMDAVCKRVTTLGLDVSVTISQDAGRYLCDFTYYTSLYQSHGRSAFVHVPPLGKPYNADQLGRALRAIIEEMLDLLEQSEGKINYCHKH
T3 sequence (Q04759 whole entry): as the sequence (Q04759 whole entry) above

COC(=O)/C=C/C(=O)OC [DMF, dimethyl fumarate]
IA-alkyne reactivity of PKCθ C14 and C17 ([1]; 50 μM, 4 h): blocked
R value (DMSO/DMF) ([1]; DMF 10 μM 4h): 1.62
R value (DMSO/DMF) ([1]; DMF 25 μM 4h): 3.29
R value (DMSO/DMF) ([1]; DMF 50 μM 2h): 2.92
R value (DMSO/DMF) ([1]; DMF 50 μM 4h): 4.21
IA-alkyne reactivity of PRKDC C4045 ([2]; 50 μM, 4 h): blocked
R value (DMSO/DMF) ([2]; DMF 50 μM 1h): 4.14
R value (DMSO/DMF) ([2]; DMF 50 μM 2h): 10.53
IA-alkyne reactivity of PKCθ C322 [3]: unaffected

COc1ccc2c(c1)CCCN2C(=O)CCl [compound 2]
isoTOP-ABPP reactivity profile (ratio) 2_200 μM_in-situ_231 [4]: 3.3

O=C(CCl)Nc1cc(C(F)(F)F)cc(C(F)(F)F)c1 [compound 3]
proteomic reactivity value (liganded cysteine rate) [5]: 15%

COc1ccc(C2CC(c3cccs3)=NN2C(=O)CCl)cc1 (stereo not shown) [compound 4]
isoTOP-ABPP reactivity profile (ratio) 4_100 μM_in-situ_231 [6]: 20.0
isoTOP-ABPP reactivity profile (ratio) 4_100 μM_in-situ_231 [7]: 8.7
